Assay results taken from US6525059B1, “Substituted pyrazoles as p38 kinase inhibitors” (G. D. Searle & Company, priority 1998, dated 2003).
Where two headings read alike, the source gives them in different places.

Columns and labels:
[1] = tested on: TNF alpha; assay: Mouse model of LPS-induced TNF alpha production; type: in vivo; conditions: for inhibition in vivo at 100 mg/kg: 100 mpk oral gavage
Protocol: TNF alpha was induced in 10-12 week old BALB/c female mice by tail vein injection with 100 ng lipopolysaccharide (from S. Typhosa) in 0.2 ml saline. One hour later mice were bled from the retroorbital sinus and TNF concentrations in serum from clotted blood were quantified by ELISA.
Efficacy was determined at each time point as percent inhibition of serum TNF levels relative to LPS injected mice that received vehicle only
wherein in the dose is milligram per kilogram (mpk) administered by oral gavage and the predose time indicates the number of hours before LPS challenge when the compound is administered.

[2] = biological target: T1, human GST-p38 kinase alpha (Homo sapiens, UniProt Q16539); assay: p38 kinase in vitro assay, second format, phosphorylation of EGFRP with 33P-ATP; type: biochemical; conditions: EGFRP assay procedure
T1 construct: The coding region of the human p38a cDNA was obtained by PCR-amplification from RNA isolated from the human monocyte cell line THP.1; made in house; host or cells: E. coli DH10B
Method in brief: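 Activated human GST-p38α (pre-activated with GST-MKK6, 1 h, 30 °C) phosphorylates EGFR 21-mer peptide (200 μM) with 50 μM ATP plus γ-33P-ATP, pH 7.5, 60 min at room temperature. Unreacted ATP removed by AG 1×8 resin; supernatant scintillation-counted.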

[3] = tested on: TNF-α; assay: LPS stimulation of TNF production by U937 cells; type: cell-based, human
Method in brief: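 PMA-differentiated human U937 cells (20 ng/ml PMA, 24 h, then 24-48 h rest) at 2 million cells/ml, 0.1% DMSO final, stimulated with E. coli LPS (100 ng/ml final) for 4 h at 37° C. TNF-α in medium measured by ELISA; IC50 in μM.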

[4] = biological target: T2, human p38 kinase alpha (Homo sapiens, UniProt Q16539); assay: p38 kinase in vitro assay, phosphorylation of biotinylated PHAS-I with gamma 32P-ATP; type: biochemical
T2 construct: The coding region of the human p38a cDNA was obtained by PCR-amplification from RNA isolated from the human monocyte cell line THP.1; GST (N); made in house; host or cells: E. coli DH10B
Method in brief: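 MKK6-activated human p38α phosphorylates biotinylated PHAS-I with γ-32P-ATP in 25 mM HEPES pH 7.5, 10 mM Mg acetate, 50 μM unlabeled ATP, 1% DMSO, 30 °C for 1 h or overnight. Compounds at 100–0.001 μM (10-fold steps, triplicate); substrate captured on streptavidin filter plates and counted by scintillation.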

[5] = tested on: TNF-α; assay: Rat assay: LPS-challenged rats, serum TNF-α by ELISA; type: in vivo; conditions: Rattus norvegicus, po, 3 mpk oral gavage, read-out: Rat LPS Model % inhib @ dose @ predose time
[6] = mouse, oral, 1h before LPS, 30 mpk, read-out: mLPS 1h, 30 mpk percent inhibition
[7] = p38α in vitro, read-out: p38^2 IC50
[8] = Homo sapiens, U-937, TNF production, LPS-stimulated human U937 cells, read-out: U937 Cell IC50
[9] = Mus musculus, -6h before LPS, read-out: Mouse LPS Model % TNF inhib @ dose @ predose time
[10] = read-out: P38 alpha kinase IC50
[11] = Mus musculus, 30 mpk oral gavage, -6h before LPS, read-out: Mouse LPS Model % TNF inhib @ dose @ predose time

T1 sequence (Q16539 whole entry): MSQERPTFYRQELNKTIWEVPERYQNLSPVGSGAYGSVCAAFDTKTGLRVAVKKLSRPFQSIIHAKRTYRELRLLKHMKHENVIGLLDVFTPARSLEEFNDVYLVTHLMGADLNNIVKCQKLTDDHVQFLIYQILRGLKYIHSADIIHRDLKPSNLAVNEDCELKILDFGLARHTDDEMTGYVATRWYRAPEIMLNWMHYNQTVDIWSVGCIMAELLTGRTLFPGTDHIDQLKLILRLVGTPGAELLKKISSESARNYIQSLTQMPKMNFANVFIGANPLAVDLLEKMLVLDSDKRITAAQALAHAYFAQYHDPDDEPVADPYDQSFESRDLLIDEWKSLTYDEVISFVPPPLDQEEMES
T2 sequence (Q16539 whole entry): as above

IC50 [2, 7] | SMILES | inhibition in vivo at 30 mg/kg [1, 6] | other results
220 nM | CCC(CO)Nc1cc(-c2c[nH]nc2-c2ccc(F)cc2)ccn1 (stereo not shown) [Example A-213, 2-[[4-[3-(4-fluorophenyl)-1H-pyrazol-4-yl]-2-pyridinyl]amino)-1-butanol] | 57% | –
18 nM | Fc1ccc(-c2nn(CCN3CCOCC3)cc2-c2ccncc2)cc1 [Example A-216, 4-[2-[3-(4-fluorophenyl)-4-(4-pyridinyl)-1H-pyrazol-1-yl]ethyl)morpholine] | 91% | IC50 ([3]; Homo sapiens, U-937, LPS-stimulated U937 cells, read-out: U937 IC50): 1830 nM
60 nM | Fc1cccc(-c2n[nH]cc2-c2ccncc2)c1 [Example A-227, 4-[3-(3-fluorophenyl)-1H-pyrazol-4-yl]pyridine] | 96% | –
178 nM | Clc1ccc(-c2n[nH]cc2-c2ccncc2)cc1 [Example A-230, 4-[3-(4-chlorophenyl)-1H-pyrazol-4-yl]pyridine] | 96% | IC50 ([4]; p38α in vitro, PHAS-I assay procedure, read-out: p38^1 IC50): 420 nM
48 nM | Cn1cc(-c2ccncc2)c(-c2ccc(Cl)cc2)n1 [Example A-232, 4-[3-(4-chlorophenyl)-1-methyl-1H-pyrazol-4-yl]pyridine] | 96% | –
– | c1ccc(-c2n[nH]cc2-c2ccncc2)cc1 [Example A-236, 4-(3-phenyl-1H-pyrazol-4-yl)pyridine] | 94% | IC50 ([2]; p38^2 IC50, p38α in vitro): 237 nM
34 nM | Fc1ccc(-c2n[nH]cc2-c2ccncc2)cc1F [Example A-239, 4-[3-(3,4-difluorophenyl)-1H-pyrazol-4-yl]pyridine] | 87% | –
961 nM | Fc1cc(-c2c[nH]nc2-c2ccc(Cl)cc2)ccn1 [Example A-240, 4-[3-(4-chlorophenyl)-1H-pyrazol-4-yl]-2-fluoropyridine] | 85% | –
338 nM | Brc1ccc(-c2n[nH]cc2-c2ccncc2)cc1 [Example A-241, 4-[3-(4-bromophenyl)-1H-pyrazol-4yl]pyridine] | 87% | –
47 nM | Cn1cc(-c2ccncc2)c(-c2ccc(F)c(F)c2)n1 [Example A-242, 4-[3-(3,4-difluorophenyl)-1-methyl-1H-pyrazol-4-yl]pyridine] | 87% | –
729 nM | Cn1cc(-c2ccncc2)c(-c2ccc(Br)cc2)n1 [Example A-243, 4-[3-(4-bromophenyl)-1-methyl-1H-pyrazol-4-yl]pyridine] | 82% | –
432 nM | Fc1ccc(-c2n[nH]cc2-c2ccnc(F)c2)cc1 [Example A-249, 2-fluoro-4-[3-(4-fluorophenyl)-1H-pyrazol-4-yl]pyridine] | 86% | –
637 nM | Cn1cc(-c2ccncc2)c(-c2ccc(I)cc2)n1 [Example A-251, 4-[3-(4-iodophenyl)-1-methyl-1H-pyrazol-4-yl]pyridine] | 87% | –
– | O=C(NCc1[nH]nc(-c2ccc(F)cc2)c1-c1ccncc1)c1c(F)cc(F)cc1F [Example B-0051] | – | IC50 [3, 8]: 2150 nM; inhibition in vivo at 3 mg/kg ([5]; 4 h, 4h): 79%; inhibition in vivo at 100 mg/kg [1, 9]: 47%
– | O=S(=O)(Cc1ccccc1)NCc1[nH]nc(-c2ccc(F)cc2)c1-c1ccncc1 [Example B-0120] | – | IC50 [3, 8]: 210 nM; inhibition in vivo at 3 mg/kg ([5]; -4 h, -4h before LPS): 70%; inhibition in vivo at 100 mg/kg [1, 9]: 77%; IC50 [4, 10]: 8 nM
– | C[C@@H](NC(=O)c1ccccc1I)c1[nH]nc(-c2ccc(F)cc2)c1-c1ccncc1 [Example B-0354] | – | IC50 [3, 8]: 660 nM; inhibition in vivo at 3 mg/kg ([5]; -4 h, -4h before LPS): 54%; inhibition in vivo at 30 mg/kg [1, 11]: 51%; IC50 [4, 10]: 1000 nM
– | C[C@@H](NS(=O)(=O)c1ccc(F)cc1)c1[nH]nc(-c2ccc(F)cc2)c1-c1ccncc1 [Example B-0385] | – | IC50 [3, 8]: 900 nM; inhibition in vivo at 3 mg/kg ([5]; -4 h, -4h before LPS): 0%; inhibition in vivo at 30 mg/kg [1, 11]: 30%; IC50 [4, 10]: 57 nM
– | Cc1c(-c2ccncc2)c(-c2ccc(F)cc2)nn1CC(=O)NCCc1ccc(Oc2ccccc2)cc1 [Example B-2286] | – | IC50 ([3]; TNF production, LPS-stimulated human U937 cells, read-out: U937 Cell IC50): 780 nM; Mouse LPS Model % TNF inhib @ dose @ predose time ([1]; 30 mpk oral gavage, 1 h before LPS challenge): 25% @ 30 mpk @ -1h; IC50 [4, 10]: 17 nM
